This note sets out measurements from ChEMBL document CHEMBL2169784, “Discovery and development of spleen tyrosine kinase (SYK) inhibitors” (J Med Chem, 2012).

Molecules are shown by their SMILES.

The nature of series [1]: Half life in rat at 10 mg/kg, po administered as single dose. Format: ADME, organism-based. More on the design: dose 10 mg/kg, route oral. Conditions: in vivo.
The nature of series [2]: Cmax in rat at 10 mg/kg, po after 2 hrs administered as single dose. Format: ADME, organism-based. More on the design: dose 10 mg/kg, route oral. As to conditions: in vivo.

The half-life is the time in which the quantity being followed falls by half. A lower half-life goes with rapid decline. By Cmax is commonly meant the peak of the concentration-time curve. For `COc1ccc(-c2cc3nccn3c(Nc3ncccc3C(N)=O)n2)cc1OC`, the half-life in series [1] was 1.78 h. The same molecule gave a Cmax in series [2] of 167 ng/mL.
